In ChEMBL document CHEMBL1149988, “Antibody catalyzed hydrolysis of a phosphotriester” (Bioorg Med Chem Lett, 1996) one finds Km, k cat and Kuncat data, which are given here for one compound.

The nature of test [1]: Michaelis-Menten kinetics was measured for the hydrolysis catalyzed by antibody 15C5.
Test [2] is described as follows: Catalysis kinetic constant was measured for the hydrolysis catalyzed by antibody 15C5.
Test [3] in a line: Hydrolysis kinetic catalysis constant was measured for the hydrolysis catalyzed by antibody 15C5.

`CC(=O)NC1COP(=O)(Oc2ccc([N+](=O)[O-])cc2)OC1` (stereo not drawn): the Km – broadly, the substrate concentration at which the rate is half of its maximum – in test [1] was 87 µM. Also, in test [2], the k cat worked out at 0.0442 s⁻¹. In addition, the Kuncat in test [3] came to 2.1 min⁻¹.
